Test results as given in ChEMBL document CHEMBL1201862, “PubChem BioAssay data set” (2004).
The source made the active and inactive calls.

Experiments:
[1] = target: T1, Aminopeptidase N (Plasmodium falciparum FcB1/Columbia, UniProt O96935); assay: malaria alanyl aminopeptidase activity blockers – biochemical, fluorogenic H-Leu-NHMec substrate, 1536-well (AID 1445); set-up: species or system Plasmodium falciparum 3D7, 3D7
T1 sequence (O96935 whole entry): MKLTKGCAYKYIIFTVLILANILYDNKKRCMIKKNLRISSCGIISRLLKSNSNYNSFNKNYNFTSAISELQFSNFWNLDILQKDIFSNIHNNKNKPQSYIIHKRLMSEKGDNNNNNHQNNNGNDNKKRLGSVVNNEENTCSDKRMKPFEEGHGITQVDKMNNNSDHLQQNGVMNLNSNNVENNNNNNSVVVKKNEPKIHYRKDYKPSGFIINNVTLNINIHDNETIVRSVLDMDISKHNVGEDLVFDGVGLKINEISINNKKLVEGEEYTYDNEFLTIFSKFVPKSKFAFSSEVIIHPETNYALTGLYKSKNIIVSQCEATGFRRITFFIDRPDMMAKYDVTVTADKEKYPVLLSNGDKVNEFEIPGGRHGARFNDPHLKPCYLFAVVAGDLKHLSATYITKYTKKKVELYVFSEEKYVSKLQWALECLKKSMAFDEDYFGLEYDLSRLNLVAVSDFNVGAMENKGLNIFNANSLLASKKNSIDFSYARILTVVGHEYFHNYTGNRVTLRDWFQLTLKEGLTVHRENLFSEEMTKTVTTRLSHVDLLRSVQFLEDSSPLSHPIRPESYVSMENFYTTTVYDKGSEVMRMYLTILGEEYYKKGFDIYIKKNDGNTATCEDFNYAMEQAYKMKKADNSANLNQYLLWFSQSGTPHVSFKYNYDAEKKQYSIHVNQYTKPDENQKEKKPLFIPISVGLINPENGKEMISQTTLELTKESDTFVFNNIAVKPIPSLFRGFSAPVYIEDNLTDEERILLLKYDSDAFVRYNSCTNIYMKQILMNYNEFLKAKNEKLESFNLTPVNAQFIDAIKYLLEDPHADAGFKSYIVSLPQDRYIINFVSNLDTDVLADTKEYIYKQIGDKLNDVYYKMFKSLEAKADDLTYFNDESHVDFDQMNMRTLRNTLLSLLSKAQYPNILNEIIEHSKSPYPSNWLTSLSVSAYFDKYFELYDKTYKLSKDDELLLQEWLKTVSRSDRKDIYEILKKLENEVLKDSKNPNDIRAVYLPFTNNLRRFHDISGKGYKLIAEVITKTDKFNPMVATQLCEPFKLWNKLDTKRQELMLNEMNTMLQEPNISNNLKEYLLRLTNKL

[2] = cells
[3] = viability of uninfected HEp-2 cells – cell-based, HTS, cytotoxicity control for RSV inhibitor project, dose response (AID 2410); assay type: functional; settings: human respiratory syncytial virus
[4] = target: Voltage-dependent T-type calcium channel subunit alpha-1H (Homo sapiens, UniProt O95180); assay type: functional;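 further: channel activity triggered by adding a high calcium stimulation buffer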
Voltage-dependent T-type calcium channel subunit alpha-1H, sequence (O95180 whole entry): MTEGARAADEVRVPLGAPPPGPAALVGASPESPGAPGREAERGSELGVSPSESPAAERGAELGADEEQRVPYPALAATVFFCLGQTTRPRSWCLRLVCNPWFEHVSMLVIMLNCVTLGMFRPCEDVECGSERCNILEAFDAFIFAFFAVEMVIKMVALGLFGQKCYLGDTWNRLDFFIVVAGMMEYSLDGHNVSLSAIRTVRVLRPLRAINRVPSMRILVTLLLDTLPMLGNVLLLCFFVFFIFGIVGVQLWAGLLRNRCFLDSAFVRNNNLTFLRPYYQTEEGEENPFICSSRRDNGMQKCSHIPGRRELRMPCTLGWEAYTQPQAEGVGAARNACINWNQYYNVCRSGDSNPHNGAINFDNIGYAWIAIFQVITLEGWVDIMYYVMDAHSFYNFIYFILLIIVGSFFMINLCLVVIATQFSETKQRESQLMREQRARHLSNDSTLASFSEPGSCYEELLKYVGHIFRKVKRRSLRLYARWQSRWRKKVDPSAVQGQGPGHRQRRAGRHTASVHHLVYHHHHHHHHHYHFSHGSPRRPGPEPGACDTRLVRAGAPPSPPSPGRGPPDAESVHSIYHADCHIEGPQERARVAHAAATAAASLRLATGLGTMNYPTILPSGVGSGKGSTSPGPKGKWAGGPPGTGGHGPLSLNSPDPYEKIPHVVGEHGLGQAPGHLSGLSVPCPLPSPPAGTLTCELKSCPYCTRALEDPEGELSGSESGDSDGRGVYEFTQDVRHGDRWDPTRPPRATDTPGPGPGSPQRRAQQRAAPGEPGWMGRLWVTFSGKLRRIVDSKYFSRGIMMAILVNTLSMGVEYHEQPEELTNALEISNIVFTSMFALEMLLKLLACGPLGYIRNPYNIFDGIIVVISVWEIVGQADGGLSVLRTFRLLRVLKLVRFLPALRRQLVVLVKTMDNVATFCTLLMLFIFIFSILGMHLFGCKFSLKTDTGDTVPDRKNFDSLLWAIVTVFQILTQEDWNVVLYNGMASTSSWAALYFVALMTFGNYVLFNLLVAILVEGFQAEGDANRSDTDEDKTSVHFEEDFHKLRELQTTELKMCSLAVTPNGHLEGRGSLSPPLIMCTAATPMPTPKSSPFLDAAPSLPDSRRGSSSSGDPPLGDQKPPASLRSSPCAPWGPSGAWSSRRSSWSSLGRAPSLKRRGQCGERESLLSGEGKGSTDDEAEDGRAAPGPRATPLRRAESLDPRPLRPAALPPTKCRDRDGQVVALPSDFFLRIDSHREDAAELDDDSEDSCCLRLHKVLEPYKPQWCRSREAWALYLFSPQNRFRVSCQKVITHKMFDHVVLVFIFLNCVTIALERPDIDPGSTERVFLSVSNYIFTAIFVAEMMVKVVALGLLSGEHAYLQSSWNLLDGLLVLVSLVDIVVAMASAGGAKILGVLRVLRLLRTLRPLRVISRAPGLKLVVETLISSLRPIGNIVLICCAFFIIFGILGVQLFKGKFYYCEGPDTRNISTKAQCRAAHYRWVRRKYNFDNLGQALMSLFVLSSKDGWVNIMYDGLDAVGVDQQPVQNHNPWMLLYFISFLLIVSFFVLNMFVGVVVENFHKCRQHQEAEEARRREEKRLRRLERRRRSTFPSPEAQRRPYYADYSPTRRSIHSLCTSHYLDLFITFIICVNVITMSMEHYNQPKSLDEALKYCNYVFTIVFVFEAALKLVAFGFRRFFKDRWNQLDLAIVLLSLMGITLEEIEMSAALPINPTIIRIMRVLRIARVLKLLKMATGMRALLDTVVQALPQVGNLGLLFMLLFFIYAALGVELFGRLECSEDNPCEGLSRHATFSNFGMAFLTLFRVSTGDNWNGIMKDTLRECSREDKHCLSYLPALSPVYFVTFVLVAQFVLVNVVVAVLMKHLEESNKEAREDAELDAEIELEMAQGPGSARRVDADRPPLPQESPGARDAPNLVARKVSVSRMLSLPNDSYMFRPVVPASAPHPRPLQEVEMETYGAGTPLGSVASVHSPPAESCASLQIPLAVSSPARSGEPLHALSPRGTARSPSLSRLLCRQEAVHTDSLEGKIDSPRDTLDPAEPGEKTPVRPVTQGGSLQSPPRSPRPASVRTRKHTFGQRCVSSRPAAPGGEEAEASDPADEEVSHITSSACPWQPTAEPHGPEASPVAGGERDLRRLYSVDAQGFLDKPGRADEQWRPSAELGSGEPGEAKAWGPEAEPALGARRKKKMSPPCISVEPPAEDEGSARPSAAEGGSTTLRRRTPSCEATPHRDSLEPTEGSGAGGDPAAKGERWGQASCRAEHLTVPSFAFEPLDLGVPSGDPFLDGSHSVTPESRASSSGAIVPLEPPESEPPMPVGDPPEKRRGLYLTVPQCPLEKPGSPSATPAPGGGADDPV

[5] = tested on: H4; assay: Luminescence Cell-Based Dose Response HTS to Identify Activators of 5'UTR Stem-Loop Driven Prion Protein mRNA Translation in H4 Neuroglioblastoma Cells. [Related pubchem assays: 1829 (Project Summary), 1814 (Primary HTS)]; assay type: functional; settings: Homo sapiens
[6] = NIH3T3 cell viability loss – ATP luminescence, mouse fibroblasts, counter-screen, dose response (AID 2010); assay type: functional, cell-based;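 further: cells exposed to compound for about 90 hours before reading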
[7] = Trypanosoma cruzi growth suppression in host cells – NIH3T3 host cells, beta-gal luminescence, confirmation (AID 2044); assay type: functional, cell-based;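 further: intracellular parasites grown in NIH/3T3 mouse fibroblasts as host cells; luminescent beta-galactosidase reporter signal from transgenic T. cruzi replicating inside host cells; inhibitors lower the luminescence signal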
[8] = target: T2, Protein skinhead-1 (Caenorhabditis elegans, UniProt P34707); assay type: functional
T2 sequence (P34707 whole entry): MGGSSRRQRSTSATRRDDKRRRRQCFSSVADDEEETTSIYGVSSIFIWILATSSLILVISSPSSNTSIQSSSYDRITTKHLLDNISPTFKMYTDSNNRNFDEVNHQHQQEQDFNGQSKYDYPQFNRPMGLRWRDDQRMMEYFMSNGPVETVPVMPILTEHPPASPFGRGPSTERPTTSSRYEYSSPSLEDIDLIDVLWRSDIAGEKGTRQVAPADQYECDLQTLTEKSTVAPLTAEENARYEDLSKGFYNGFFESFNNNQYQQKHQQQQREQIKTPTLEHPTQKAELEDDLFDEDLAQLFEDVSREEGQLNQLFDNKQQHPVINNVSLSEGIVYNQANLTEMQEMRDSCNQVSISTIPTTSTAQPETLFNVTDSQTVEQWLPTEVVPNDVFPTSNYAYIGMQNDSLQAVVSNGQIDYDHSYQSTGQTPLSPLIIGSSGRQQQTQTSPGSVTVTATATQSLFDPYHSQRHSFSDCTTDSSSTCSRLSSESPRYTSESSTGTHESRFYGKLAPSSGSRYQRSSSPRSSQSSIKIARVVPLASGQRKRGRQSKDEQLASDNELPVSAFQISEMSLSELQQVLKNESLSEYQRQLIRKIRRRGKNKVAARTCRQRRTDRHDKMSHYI

[9] = Luminescence Cell-Based Dose Confirmation HTS to Identify Activators of 5'UTR Stem-Loop Driven Alpha-Synuclein mRNA Translation in H4 Neuroglioblastoma Cells. [Related pubchem assays: 1829 (Project Summary), 1814 (Primary HTS)]; assay type: functional
[10] = Luminescence Cell-Based Dose Response HTS to Identify Activators of Luciferase Translation or Activity in H4 […] Cells. [Related pubchem assays: 1829 (Project Summary), 1814 (Primary HTS)]; assay type: functional
[11] = target: T3, Coagulation factor XII (Homo sapiens, UniProt P00748); assay type: functional;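 further: activated factor XIIa alpha cleaving a fluorogenic AMC peptide substrate; inhibitor potency from loss of enzyme activity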
T3 sequence (P00748 whole entry): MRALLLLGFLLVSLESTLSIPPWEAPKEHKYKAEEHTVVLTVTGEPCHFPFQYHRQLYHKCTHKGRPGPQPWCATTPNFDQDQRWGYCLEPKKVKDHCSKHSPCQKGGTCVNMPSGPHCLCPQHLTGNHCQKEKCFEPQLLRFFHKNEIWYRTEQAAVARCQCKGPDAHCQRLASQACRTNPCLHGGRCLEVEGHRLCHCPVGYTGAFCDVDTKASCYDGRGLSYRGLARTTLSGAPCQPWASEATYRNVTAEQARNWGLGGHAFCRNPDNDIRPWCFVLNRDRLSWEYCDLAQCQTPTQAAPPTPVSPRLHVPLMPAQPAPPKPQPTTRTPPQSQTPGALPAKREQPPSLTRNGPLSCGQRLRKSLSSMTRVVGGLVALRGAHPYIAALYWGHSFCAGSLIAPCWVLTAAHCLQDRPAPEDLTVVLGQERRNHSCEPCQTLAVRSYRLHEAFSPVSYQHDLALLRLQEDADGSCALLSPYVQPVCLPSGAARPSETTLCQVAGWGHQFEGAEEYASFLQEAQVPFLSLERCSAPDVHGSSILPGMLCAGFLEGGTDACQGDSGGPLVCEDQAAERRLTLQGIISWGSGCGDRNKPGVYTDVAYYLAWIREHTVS

[12] = target: Glyceraldehyde-3-phosphate dehydrogenase (Homo sapiens, UniProt P04406)
Glyceraldehyde-3-phosphate dehydrogenase, sequence (P04406 whole entry): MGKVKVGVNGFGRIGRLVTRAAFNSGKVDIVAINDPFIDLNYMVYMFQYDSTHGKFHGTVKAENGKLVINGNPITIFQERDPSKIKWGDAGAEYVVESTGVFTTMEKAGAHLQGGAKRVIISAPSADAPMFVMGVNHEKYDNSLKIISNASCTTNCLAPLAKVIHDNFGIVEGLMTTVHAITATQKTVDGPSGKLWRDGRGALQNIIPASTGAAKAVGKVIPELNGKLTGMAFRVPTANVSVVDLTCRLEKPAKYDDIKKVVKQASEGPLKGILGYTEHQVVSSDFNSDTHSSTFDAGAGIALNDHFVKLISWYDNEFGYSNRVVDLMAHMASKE

[13] = target: T4, Alkaline phosphatase, tissue-nonspecific isozyme (Homo sapiens, UniProt P05186); assay: potency against alkaline phosphatase TNAP – biochemical, luminescent, dose response, SAR follow-up (AID 1056)
T4 sequence (P05186 whole entry): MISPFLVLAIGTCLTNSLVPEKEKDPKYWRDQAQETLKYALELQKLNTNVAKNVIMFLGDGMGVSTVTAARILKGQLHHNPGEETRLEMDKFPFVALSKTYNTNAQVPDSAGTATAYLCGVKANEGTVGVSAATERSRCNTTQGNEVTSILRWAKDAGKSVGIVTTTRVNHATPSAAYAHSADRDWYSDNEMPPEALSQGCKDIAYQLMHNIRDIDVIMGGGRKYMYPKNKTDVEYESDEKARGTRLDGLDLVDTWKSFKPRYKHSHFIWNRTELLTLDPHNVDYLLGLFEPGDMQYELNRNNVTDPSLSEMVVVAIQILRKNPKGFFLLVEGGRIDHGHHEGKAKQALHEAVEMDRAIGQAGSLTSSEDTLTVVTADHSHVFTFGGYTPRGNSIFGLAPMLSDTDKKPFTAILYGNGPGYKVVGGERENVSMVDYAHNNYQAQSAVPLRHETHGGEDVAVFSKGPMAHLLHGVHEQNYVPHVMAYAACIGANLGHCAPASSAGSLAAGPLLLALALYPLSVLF

[14] = target: Peroxisome proliferator-activated receptor gamma/Nuclear receptor coactivator 3 (Homo sapiens, UniProt P37231); assay: TR-FRET dose response biochemical High Throughput Screening assay for agonists of the steroid receptor coactivator 3 (SRC-3) recruitment by the peroxisome proliferator-activated receptor gamma (PPAR gamma): non-selective agonists. [Related pubchem assays: 1301 (Confirmation screen.), 1048 (Primary screen.)]; assay type: functional
[15] = target: Peroxisome proliferator-activated receptor gamma/Nuclear receptor coactivator 2 (Homo sapiens, UniProt P37231); assay: (§1) TR-FRET dose response biochemical High Throughput Screening assay for agonists of the steroid receptor coactivator 2 (SRC-2) recruitment by the peroxisome proliferator-activated receptor gamma (PPAR gamma): non-selective agonists. [Related pubchem assays: 1297, 1032 ]; assay type: functional
[16] = target: Peroxisome proliferator-activated receptor gamma/Nuclear receptor coactivator 1 (Homo sapiens, UniProt P37231); assay: as §1, with “1 (SRC-1)” for “2 (SRC-2)”, “assays (depositor defined):AID1300, AID1808, AID504735, AID631]” for “assays: 1297, 1032 ]”; assay type: protein assay
[17] = HEK-293T cell viability reduction – luminescence, B-cell screen hits, cytotoxicity control for BCR NF-kB inhibitor project, dose response (AID 489021); assay type: functional, cell-based;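 further: HEK-293T cells carrying an NF-kB luciferase reporter; cells exposed to compound for about 14 hours before viability readout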
[18] = tested on: INS1; assay: INS-1E survival protection against cytokine death – cell-based, luminescence, retest, dose response (AID 449756); assay type: functional; settings: Rattus norvegicus;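 further: cell death triggered by IL-1 beta plus TNF-alpha plus IFN-gamma mixture; protective hits raise ATP signal compared with cytokine alone wells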
[19] = target: T5, Luciferin 4-monooxygenase (Photinus pyralis, UniProt P08659); assay: inhibition of purified Photinus pyralis luciferase – biochemical, luminescence, dose response (AID 1891)
T5 sequence (P08659 whole entry): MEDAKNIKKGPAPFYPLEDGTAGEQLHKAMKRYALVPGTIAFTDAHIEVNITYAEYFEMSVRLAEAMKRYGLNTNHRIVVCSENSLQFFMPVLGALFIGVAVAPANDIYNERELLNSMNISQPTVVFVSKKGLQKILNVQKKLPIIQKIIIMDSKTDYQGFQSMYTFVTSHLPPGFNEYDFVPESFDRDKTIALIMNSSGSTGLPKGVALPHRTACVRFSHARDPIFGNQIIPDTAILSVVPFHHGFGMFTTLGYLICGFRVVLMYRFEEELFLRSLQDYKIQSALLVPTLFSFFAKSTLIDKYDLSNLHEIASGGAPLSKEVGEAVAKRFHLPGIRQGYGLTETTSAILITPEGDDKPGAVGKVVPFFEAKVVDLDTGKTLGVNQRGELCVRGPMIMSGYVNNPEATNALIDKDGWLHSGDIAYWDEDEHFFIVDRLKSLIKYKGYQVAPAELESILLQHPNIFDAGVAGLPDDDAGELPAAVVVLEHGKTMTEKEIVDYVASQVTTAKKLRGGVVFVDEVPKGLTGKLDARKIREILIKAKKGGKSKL

[20] = tested on: HT-1080; assay: HT1080 cell viability loss – fluorescence readout (AID 620); assay type: functional, cell-based; settings: Homo sapiens
[21] = Luminescence Cell-Based Dose Confirmation HTS to Identify Inhibitors of Platelet Dense Granule Release. [Related pubchem assays: 1663 (Primary HTS), 1678 (Summary of Project)]; assay type: functional
[22] = Luminescence-based cell-based high throughput dose response assay to identify activators of the DAF-12 from the parasite S. stercoralis (ssDAF-12).; assay type: functional
[23] = target: T5, Luciferin 4-monooxygenase; assay: Counter Screen for Luciferase-based Assay Positives. [Related pubchem assays: 620, 618, 411 ]
[24] = target: Prothrombin (Homo sapiens, UniProt P00734); assay: Thrombin 1536 HTS Dose Response Confirmation. [Related pubchem assays: 1046 (Thrombin 1536 HTS; hits were confirmed in this assay)]; assay type: functional
[25] = THP-1 cell cytotoxicity, dose response, cytotoxicity control for non-replicating M. tuberculosis project (AID 489025); assay type: functional
[26] = HepG2 cell cytotoxicity, dose response, cytotoxicity control for non-replicating M. tuberculosis project (AID 489018); assay type: functional; settings: Mycobacterium tuberculosis
[27] = Vero E6 cell cytotoxicity, dose response, cytotoxicity control for non-replicating M. tuberculosis project, secondary assay (AID 492998); assay type: functional, VeroE6; settings: Vero C1008

COc1ccc(/C=C2/SC(=O)N(NS(=O)(=O)c3ccccc3)C2=S)cc1OC
IC50 [1]: 30.5 µM (active)
IC50 [2]: 18.8 µM (active)
CC50 [3]: 31.5 µM (active)

Cc1ccc(CCNC(=O)C[S+]([O-])Cc2nc(-c3cccc(C)c3)oc2C)cc1 (stereo unspecified)
EC50 [4]: 4.04 µM (active)

O=C(Nc1nc(-c2ccc(Cl)s2)cs1)c1cccs1
EC50 [5]: 5.03 µM (active)
EC50 [6]: 8.5 µM (active)
EC50 [7]: 1.04 µM (active)
IC50 [8]: 81.2 µM (inactive)
EC50 [9]: 34.3 µM (active)
EC50 [10]: 15.1 µM (active)
IC50 [11]: 23.9 µM (active)

CCOC(=O)c1[nH]nc2c1COc1ccccc1-2
IC50 [12]: > 100 µM (not active)
IC50 [13]: > 100 µM (inactive)

CN(C)C1=C(Cl)C(=O)N(c2nnc(Cc3ccccc3)[nH]2)C1=O
IC50 [12]: > 100 µM (not active)
IC50 [13]: 4.49 µM (active)

Cn1c(=O)cc(SCC(=O)Nc2ccccn2)c2ccccc21
EC50 [14]: > 79.4 µM (not active)
EC50 [15]: > 79.4 µM (not active)
EC50 [16]: > 79.4 µM (inactive)

Cc1cccc(Nc2nc(-c3ccccc3)c(C(=O)Nc3cccnc3)s2)c1
EC50 [14]: > 79.4 µM (not active)
EC50 [15]: 7.24 µM (active)
EC50 [16]: 7.34 µM (active)

COc1ccc(Nc2nnc(SC(C(=O)Nc3cc(C)ccc3C)c3ccccc3)s2)cc1 (stereo unspecified)
IC50 [11]: > 50 µM (inactive)

CCN1C(=O)c2cccc3c(S(=O)(=O)NCC4CCCO4)ccc1c23 (stereo unspecified)
IC50 [17]: > 80 µM (inactive)

O=C(Nc1ccc(OCC(=O)N2CCC(Cc3ccccc3)CC2)cc1)c1ccco1
AC50 [18]: 5.93 µM (active)
EC50 [4]: 2.36 µM (active)

Oc1cccc(-c2nc3ccccc3s2)c1
EC50 [19]: 1.83 µM (active)
EC50 [20]: > 50 µM (not active)
EC50 [21]: 22.2 µM (active)
IC50 [22]: > 67.6 µM (inactive)
EC50 [23]: 12.4 µM (active)
IC50 [24]: > 50 µM (not active)

Nc1ccc(-c2cc(C(=O)O)n[nH]2)cc1
IC50 [12]: > 100 µM (not active)
IC50 [13]: 8.69 µM (active)

CCCCCCn1c(-c2ccco2)nc2oc3cc(OC)ccc3c(=O)c2c1=O
IC50 [17]: > 80 µM (inactive)

CN1CCN(c2ncnc3c2cnn3-c2ccc(Cl)cc2)CC1
EC50 [20]: > 50 µM (not active)
EC50 [23]: 0.55 µM (active)

O=C(Nc1ccc(C(F)(F)F)cc1[N+](=O)[O-])O[C@H]1[C@H](Cc2ccccc2)NS(=O)(=O)[C@H]2C[C@@H]3C=C[C@]12O3
IC50 [2]: 24.6 µM (active)
CC50 [3]: 23 µM (active)

CS(=O)(=O)N(CC(=O)N/N=C/c1ccccc1C(=O)O)c1cccc(Cl)c1Cl
IC50 [11]: > 50 µM (inactive)

C/C(=N\NC(=O)c1ccc(CN2CCc3ccccc3C2)cc1)c1ccccc1O
CC50 [25]: 15.3 µM (active)
CC50 [26]: 10.7 µM (active)
EC50 [6]: 3.88 µM (active)
CC50 [27]: 13.9 µM (active)
EC50 [7]: 1.06 µM (active)

O=C(/C=C\Nc1ccccn1)c1ccc(Cl)cc1
EC50 [20]: > 50 µM (not active)
EC50 [23]: 2.45 µM (active)
